# From patent US20140336365A1, “CDR REGIONS OF MONOCLONAL ANTIBODY THAT ANTAGONIZE SPHINOGOSINE 1-PHOSPHATE AND RELATED METHODS” (priority 2011, published 2014)
# Experiments:
# MCF-7 = test: Cell proliferation by BrdU incorporation, MCF-7; format: cell-based, human
# Experimental: (§1) The experiment can first be performed in the absence of the antagonist. The effect of S1P on cell proliferation is determined by measuring bromodeoxyuridine (BrdU) incorporation. In this assay, cells are treated with S1P or vehicle control (0.1% fatty acid-free BSA) for 30 minutes before being exposed to a 30-minute BrdU pulse. Cells are then fixed with ethanol, labeled with a biotinylated α-BrdU antibody, incubated with streptavidin-peroxidase, developed with DAB, and counter-stained with hematoxylin. Nuclei of cells in S-phase during the 30-minute pulse are labeled brown, while non-proliferative cells show the blue hematoxylin stain.
# MCF-7 cells = test: Cell death by annexin V assay (FACS); format: cell-based, human; settings: for % Annexin positive cells: overnight
# Experimental: Quantification of cell death can be performed with an annexin V assay. […] of 500 nM S1P, then collected by trypsinization, and labeled with Alexafluor 488-conjugated annexin V (Invitrogen Corp, Carlsbad, Calif.) per manufacturer's protocol. Cells can be counted on a FACSAria cell sorting system and analyzed with FACSDiva software (BD Biosciences, San Jose, Calif.). […] This effect is attenuated by co-administration of 500 nM S1P.
# MDA-MB-231 cells [1] = test: Cell motility, modified Boyden's chamber assay; format: cell-based, human; settings: 1 μM S1P
# Experimental: Cell motility is determined using a modified Boyden's chamber assay. MDA-MB-231 cells are introduced into the upper wells of collagen-coated chambers in serum-free DMEM and incubated for 30 minutes before the addition of either 1 μM S1P in BSA or BSA alone. At the indicated times, wells are isolated and fixed with 4% paraformaldehyde before non-migrated cells in the upper well are removed with a cotton swab. Membranes are then stained with DAPI to visualize individual migrated cells on the bottom of the membranes. Results shown are the averages of three independent experiments.
# [2] = test system: MDA-MB-231 breast cancer cells; test: S1P-induced cytoskeletal rearrangement / cell rounding (phalloidin staining); format: cell-based, human
# Experimental: MDA-MB-231 breast cancer cells are cultured on collagen-coated coverslips in the presence of 10% FBS using standard techniques. Because S1P is present at high concentrations in serum, BCCs are “serum-starved” in Dulbecco's modified Eagle medium (DMEM) for 12 hours prior to experimental manipulation. S1P is solubilized with bovine serum albumin (BSA) carrier and administered at a final concentration of 1 nM to 1 μM. Coverslips are collected at representative time points such as 10 minutes, 1 hr., 2 hrs., 4 hrs., and 6 hrs., fixed with 4% paraformaldehyde, and stained with rhodamine-conjugated phalloidin to label cytoskeletal actin.
# The cell rounding experiment can be performed using an antagonist of S1P that binds to S1P3. For example, the antiserum described in Example 1 can be employed. Serum-starved MDA-MB-231 cells are incubated with preimmune serum or S1P3-reactive antiserum for 15 minutes prior to a 30-minute exposure to 10 nM S1P, then evaluated for response both in % cells responding and average cell area.
# MDA-MB-231 cells are grown under standard culture conditions and serum starved for 24 hours prior to experimental manipulation. S1P3 antiserum or pre-immune serum obtained from the same rabbit is added to the media at a final concentration of 1:10,000 as indicated. 15 minutes later, S1P is added to the media to a final concentration of 10 nM. 30 minutes after S1P administration, cells are fixed with 4% paraformaldehyde, stained with rhodamine-conjugated phalloidin, and visualized with fluorescence microscopy. Rounded cells are counted by an experimenter blinded to the identity of the sample. Cell area is determined by quantification with ImageJ software.
# MDA-MB-231 = test: Cell proliferation by BrdU incorporation, MDA-MB-231; format: cell-based, human
# Experimental: as §1
# MDA-MB-231 cells [3] = test: Tamoxifen toxicity, cell viability by phase contrast microscopy; format: cell-based, human
# Experimental: The experiment can be performed first without a S1P antagonist. MDA-MB-231 cells are cultured under standard conditions in Dulbecco's Minimal Essential Media supplemented with 10% fetal bovine serum and glutamate. Cells are grown in the absence of serum for 24 hours prior to experimental manipulation. Tamoxifen (Tam) and S1P are added to the media at the indicated concentrations for the indicated times at the appropriate concentrations (e.g., 3 μM Tam, 10 μM Tarn, and 20 μM Tam) for appropriate times (e.g., 6 hrs. and 24 hrs.). Cell viability is observed by direct illumination with an inverted phase contrast microscope.
# The tamoxifen toxicity experiment can be performed using an antagonist of S1P that binds to S1P3. For example, the antiserum described in Example 1 can be employed. MDA-MB-231 cells are cultured under standard conditions in Dulbecco's Minimal Essential Media supplemented with 10% fetal bovine serum and glutamate. Serum concentration is reduced to 1% for 24 hours prior to experimental manipulation. Tamoxifen and S1P are added to the media at the appropriate concentrations (e.g., 0 μM Tam, 10 μM Tam, and 20 μM Tam) for appropriate times (e.g., 6 hrs. and 24 hrs.). Cell viability is observed by direct illumination with an inverted phase contrast microscope.
# tumor transplant model = settings: cited from earlier work
# S1P receptors = settings: with the exception of S1P2; by stable internalization; cited from earlier work
# S1P3 = target: T1, S1P3 (Homo sapiens, UniProt Q99500); test: Immunocytochemistry of hybridoma supernatants on HEK293 cells expressing tagged S1P3; format: binding; settings: HEK293 cells expressing S1P3 fused to V5 or EGFP
# T1 construct: expressed in transfected cells; host or cells: HEK293 (pcDNA3.1)
# T1 sequence (Q99500 whole entry, the tested form may be a part): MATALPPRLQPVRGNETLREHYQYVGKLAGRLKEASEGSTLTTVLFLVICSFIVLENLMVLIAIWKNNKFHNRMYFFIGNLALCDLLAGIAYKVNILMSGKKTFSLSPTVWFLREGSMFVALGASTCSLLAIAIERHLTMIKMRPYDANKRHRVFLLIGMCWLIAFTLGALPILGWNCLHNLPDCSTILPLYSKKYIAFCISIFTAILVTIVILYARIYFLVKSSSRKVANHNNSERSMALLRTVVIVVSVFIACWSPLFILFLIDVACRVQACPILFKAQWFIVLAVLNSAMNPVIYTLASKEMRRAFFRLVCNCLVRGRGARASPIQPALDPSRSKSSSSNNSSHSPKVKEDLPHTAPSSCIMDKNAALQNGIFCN
# Excerpt: A synthetic peptide is synthesized with the amino acid sequence: KKTFSLSPTVWFLREG. This sequence corresponds to the extra-cellular loop between transmembrane domains 2 and 3 of cell surface receptor S1P3. This peptide is conjugated to keyhole limpet hemocyanin (KLH) and used for the immunization of 5 balb/c mice. Production of specific antibodies is confirmed by immunocytochemistry. HEK293 cells are transiently transfected with a mammalian expression vector (pcDNA3.1) encoding the full-length S1P3 protein fused to either a V5 epitope or enhanced green fluorescent protein (EGFP) on its C-terminal end. After 16-36 hours, cells are fixed with 4% paraformaldehyde, blocked with BSA, and exposed to antiserum from immunized mice (dilutions of 1:10, 1:25, 1:50, 1:100, 1:250, 1:500, 1:1,000, 1:2,000, 1:5,000), or supernatants from hybridoma cultures. […] Binding of antibodies from serum or supernatants is detected with a Cy3-conjugated secondary antibody. Specificity of binding is evaluated by coincidence of this signal with green fluorescence, either from the expressed EGFP fusion protein or from secondary antibody bound to the expressed V5 epitope.
# Mice are immunized with KLH-conjugated peptide at regular intervals and evaluated by enzyme-linked immunosorbent assay (ELISA) and immunocytochemistry until sera are identified that contain specific antibodies (2-3 months). […]
molecule,measurement,setting,value
"CCCCCCCCCCCCC/C=C/[C@@H](O)[C@@H](N)COP(=O)(O)O [S1P, Sphingosine 1-phosphate]","Effect on mitosis (BrdU incorporation), in words",MCF-7,dose-dependent increase in mitosis
same,Mitosis by BrdU incorporation,MCF-7; 10 nM S1P,49%
same,Mitosis by BrdU incorporation,MCF-7; 100 nM S1P,45%
same,Mitosis by BrdU incorporation,MCF-7; 1 μM S1P,61%
same,% Annexin positive cells,MCF-7 cells; 500 nM S1P with 10 μM Tamoxifen,15.9%
same,% Annexin positive cells,MCF-7 cells; 500 nM S1P with 20 μM Tamoxifen,20.2%
same,% Annexin positive cells,"MCF-7 cells; 500 nM S1P, 0 Tamoxifen",6.2%
same,"Effect on tamoxifen-induced annexin V binding, in words",MCF-7 cells; co-administration of 500 nM S1P,attenuated
same,"Effect on cell motility compared to vehicle control, in words",MDA-MB-231 cells [1],rapid and significant increase in cell motility
same,Cell migration (migrated cells),MDA-MB-231 cells [1]; 1 hours,672.5 Cells/mm^2
same,Cell migration (migrated cells),MDA-MB-231 cells [1]; 2 hours,900 Cells/mm^2
same,Cell migration (migrated cells),MDA-MB-231 cells [1]; 4 hours,1385 Cells/mm^2
same,Increase in migrated cells compared to vehicle control,MDA-MB-231 cells [1]; two hour time point,nearly two-fold increase
same,Increase in migrated cells compared to vehicle control,MDA-MB-231 cells [1]; within one hour,74%
same,Cell shape change,[2]; 1 nM S1P,minor cell shape changes
same,Cell shape change,[2]; 10 nM S1P,dramatic cell rounding
same,% Rounded Cells Following S1P Treatment,"[2]; 10 nM S1P, 30 min, no serum",64%
same,Average Cell Area Following S1P Treatment,"[2]; 10 nM S1P, 30 min, no serum",960.4 μm^2
same,Cells with marked cytoskeletal rearrangement,"[2]; 1 μM S1P, within 10 minutes",> 90%
same,"Effect on mitosis (BrdU incorporation), in words",MDA-MB-231,dose-dependent increase in mitosis
same,Mitosis by BrdU incorporation,MDA-MB-231; 10 nM S1P,71%
same,Mitosis by BrdU incorporation,MDA-MB-231; 100 nM S1P,84%
same,Mitosis by BrdU incorporation,MDA-MB-231; 1 μM S1P,88%
same,Cell viability under tamoxifen with S1P,"MDA-MB-231 cells [3]; 1 μM S1P with 10 or 20 μM tamoxifen, 6 hours, serum-free",many viable cells remain
same,Survival under tamoxifen with S1P,"MDA-MB-231 cells [3]; S1P with 3 or 10 μM tamoxifen, 24 hour, serum-free",markedly improves survival
CC/C(=C(\c1ccccc1)c1ccc(OCCN(C)C)cc1)c1ccccc1 [Tamoxifen],% Annexin positive cells,"MCF-7 cells; 10 μM Tamoxifen, BSA (no S1P)",20.1%
same,% Annexin positive cells,"MCF-7 cells; 20 μM Tamoxifen, BSA (no S1P)",28.9%
same,"Effect on annexin V binding (apoptotic cell death), in words",MCF-7 cells; overnight treatment with tamoxifen,increase in annexin V binding
same,Cell viability,"MDA-MB-231 cells [3]; 3 μM tamoxifen, 24 hour, serum-free",most control cells are lost
same,Cell viability,"MDA-MB-231 cells [3]; 10 μM Tam, 6 hours, 1% FBS",appear normal
same,Cell viability,"MDA-MB-231 cells [3]; 10 μM tamoxifen, 6 hours, serum-free",only a few viable cells remain
same,Cell viability,"MDA-MB-231 cells [3]; 10 μM tamoxifen, 24 hour, serum-free",cell death is complete
same,Cell viability,"MDA-MB-231 cells [3]; 20 μM Tam, 6 hours, 1% FBS",begin to show evidence of cell death
same,Cell viability,"MDA-MB-231 cells [3]; 20 μM tamoxifen, 6 hours, serum-free",all cells are dead/dying
CCCCCCCCc1ccc(CCC(N)(CO)CO)cc1 [FTY720],Effect on angiogenesis and tumor growth,tumor transplant model,inhibit angiogenesis and subsequent growth
same,Inhibition of S1P receptors,S1P receptors,effectively inhibit four of the five known receptors
"EDDbeta7H9: Hybridoma EDDbeta7H9 (ATCC PTA-9973) produces the monoclonal antibody Mab7H9, which binds S1P3 (antibody, V domains shown) VL: DIVMTQSHKFMSTSVGDRVSITCKASQDVSTGVVWYQQKEGQSPKLLIYSASYRYTGVPNRFTGSGSGTDFTFTISGVQAEDLAVYYCQQHYSSPTFGGGTKLEIKRADAAPTVSIFPPSS VH: QVTLKESGPGILQPSQTLSLTCSFSGFSLSTSNMGVGWIRQPSGKGLEWLLHILWNDNKHYNPALKSRLTISKDTYKNQVFLKIANVDTADTATYYCARILYRSNYYVMDYWGQGTSVTVSSAKTTPPSVYPL",Presence of specific antibodies in hybridoma supernatant by immunocytochemistry,S1P3,positive
